Here are results for 1 compound from patent US9861625B2, “Methods and compositions for treating cancer through inhibition of PI3K” (Duke University, priority 2014, dated 2018).

Structures are written as SMILES.

Series [1] has as its system Ly8 cells and normal human B cells (tonsil lymphocytes). Description: Toxicity in Ly8 cells compared to normal B cells (alamar blue). The format is cell-based. The following applies: alone and in combination; 36 hours. As for the experimental part:
BEZ235 was tested in combination with the PAK1 inhibitor IPA-3 using Calcusyn software by applying the Chou-Talalay method. BJAB, HBL1, HBL2, HT, Ly8, and Riva cells were tested, as were normal tonsil lymphocytes. Ly8 and tonsillar lymphocytes were cultured in 96-well plates (approximately 500,000 cells/ml) for 36 hours in Iscove's modified Dulbecco's medium (IMDM) with 20% human AB serum. Viability was assessed with alamar blue dye and normalized to the lowest concentration of BEZ235 in each group.
Finally, BEZ235 and IPA-3 were administered separately and concurrently to normal human B cells to ascertain a therapeutic window between normal and malignant cells.
On the technique in general: Alamar Blue is a resazurin reagent that responds to reducing activity.

Series [2] deals with nine different cells lines. Description: IPA-3 as a single agent in nine cell lines. The class given is cell-based. As for the experimental part:
The 3-(4,5-dimethylthiazol-2-yl)-2,5-diphenyltetrazolium bromide (MTT) cell viability assay was used to determine cell viability in response to drug treatment. Five replicates per concentration tested were carried out in serial dilutions with a total of ten concentrations with a 50% reduction in drug concentration per dilution for each plate. A total of 15 μl of MTT reagent was added to each drug-treated well and incubated for three hours in 37° C. Detergent was added to each drug-treated well and incubated overnight at room temperature without exposure to light. Absorbance was measured at 570 nm using a plate reader from Tecan Group. The IC50 concentration was determined using the publicly available ED50 plus v1.0 software program.
Small-molecule inhibition of PAK1 with IPA-3 achieved consistent results. PAK1 inhibition with IPA-3 was tested in nine different cells lines, both individually and in combination with BEZ235.

As to `Oc1ccc2ccccc2c1SSc1c(O)ccc2ccccc12` [IPA-3], in series [1], the “toxicity in Ly8 cells as compared to normal B cells” value is listed as “selective toxicity”. The “cell death at 10 μmol/L, upper end of the range” value in series [2] (10 μmol/L) is on record as “no cell death”. In addition, the IC50 – broadly, the concentration at which inhibition is half-maximal – in series [2] (nine cell lines, read-out: observed IC50 values, lower end of range) is not below 697 nM.
